Values joined by “and” are separate entries in the source; they are usually repeats but may differ in a detail not shown here. Equal values may be shown once. Toxic doses and inconclusive results are not listed.

The assay relates to P388 leukemia ip, CD2F1 mice, survival T/C. Nature of the assay: NCI In Vivo Anticancer Drug Screen. Data for tumor model P388 Leukemia (intraperitoneal) in CD2F1 (CDF1) mice. Conditions: endpoint: median survival time, higher = longer survival. Summed up: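 Mice carrying the transplanted tumor received test compound or vehicle. Survival was recorded in each group, and the value is the treated-group measurement divided by that of the vehicle-treated control group.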

The mark [1] stands for this setting: dose: 100.0 mg/kg/injection, schedule: Q01DX009 (ip), vehicle: saline.
[2] abbreviates: dose: 200.0 mg/kg/injection, schedule: Q01DX009 (ip), vehicle: saline.

For the compound `CS(=O)(=O)OCCOc1ccc(-c2nc3ccccc3[nH]2)cc1`, the T/C is 90 % of control (dose: 100.0 mg/kg/injection, schedule: Q01DX001 (ip), vehicle: saline with Tween-80); 98 % of control (dose: 200.0 mg/kg/injection, schedule: Q01DX001 (ip), vehicle: saline with Tween-80); 99 % of control (dose: 400.0 mg/kg/injection, schedule: Q01DX001 (ip), vehicle: saline with Tween-80).
With `NCCCC(NN)C(=O)O` (stereo unspecified), the T/C is, setting by setting: (dose: 3.3 mg/kg/injection, schedule: Q01DX009 (ip), vehicle: saline) 101 % of control and 90 % of control; (dose: 6.6 mg/kg/injection, schedule: Q01DX009 (ip), vehicle: saline) 100 % of control and 95 % of control; (dose: 7.5 mg/kg/injection, schedule: Q01DX009 (ip), vehicle: saline) 100 % of control; (dose: 10.0 mg/kg/injection, schedule: Q01DX009 (ip), vehicle: saline) 99 % of control and 97 % of control; (dose: 15.0 mg/kg/injection, schedule: Q01DX009 (ip), vehicle: saline) 109 % of control and 93 % of control; (dose: 22.5 mg/kg/injection, schedule: Q01DX009 (ip), vehicle: saline) 102 % of control and 110 % of control. Moreover, under “dose: 30.0 mg/kg/injection, schedule: Q01DX009 (ip), vehicle: saline”, the T/C was 103 % of control.
Turning to `O=C(c1ccccc1)C1C(c2ccccc2)C2(CCCCC2=O)C(c2ccccc2)CC1(O)c1ccccc1` (stereo unspecified), the T/C runs as follows: (dose: 3.12 mg/kg/injection, schedule: Q01DX001 (ip), vehicle: Klucel (hydroxypropylcellulose) (HPC)) 98 % of control; (dose: 6.25 mg/kg/injection, schedule: Q01DX001 (ip), vehicle: Klucel (hydroxypropylcellulose) (HPC)) 86 % of control; (dose: 12.5 mg/kg/injection, schedule: Q01DX001 (ip), vehicle: Klucel (hydroxypropylcellulose) (HPC)) 86 % of control; (dose: 25.0 mg/kg/injection, schedule: Q01DX001 (ip), vehicle: Klucel (hydroxypropylcellulose) (HPC)) 86 % of control.
As to `COc1cc2c(cc1OC)C(C)C1c3cc4c(cc3CCN1C2)OCO4` (stereo unspecified), the T/C was 103 % of control and 100 % of control (dose: 50.0 mg/kg/injection, schedule: Q04DX003 (ip), vehicle: distilled water + Tween-80); 97 % of control and 103 % of control (dose: 100.0 mg/kg/injection, schedule: Q04DX003 (ip), vehicle: distilled water + Tween-80); 99 % of control and 103 % of control (dose: 200.0 mg/kg/injection, schedule: Q04DX003 (ip), vehicle: distilled water + Tween-80); 103 % of control (dose: 400.0 mg/kg/injection, schedule: Q04DX003 (ip), vehicle: distilled water + Tween-80).
Turning to `CN(C)c1nc(N)nc2c1nc(Cl)n2C1OC(CO)C(O)C1O` (stereo unspecified), the T/C (dose: 50.0 mg/kg/injection, schedule: Q01DX005 (ip), vehicle: saline with Tween-80) was 99 % of control; the T/C (dose: 100.0 mg/kg/injection, schedule: Q01DX005 (ip), vehicle: saline with Tween-80) was 100 % of control; the T/C (dose: 200.0 mg/kg/injection, schedule: Q01DX005 (ip), vehicle: saline with Tween-80) is 100 % of control.
Regarding `CCOC(=O)CC1(C)NCCS1` (stereo unspecified), the T/C runs as follows: (dose: 50.0 mg/kg/injection, schedule: Q01DX009 (ip), vehicle: saline) 96 % of control; under setting [1], 99 % of control; under setting [2], 96 % of control.
`CSc1c(C#N)c(N)nn1-c1ccccn1`: the T/C (dose: 100.0 mg/kg/injection, schedule: Q04DX002 (ip), vehicle: saline with Tween-80) was 100 % of control; the T/C (dose: 200.0 mg/kg/injection, schedule: Q04DX002 (ip), vehicle: saline with Tween-80) was 98 % of control; the T/C (dose: 400.0 mg/kg/injection, schedule: Q04DX002 (ip), vehicle: saline with Tween-80) was 99 % of control.
Turning to `C/C=C1/CC2C=Nc3cc(O)c(OC)cc3C(=O)N2C1` (stereo unspecified), the T/C was 157 % of control (dose: 1.0 mg/kg/injection, schedule: Q01DX005 (ip), vehicle: saline + alcohol); 98 % of control (dose: 50.0 micrograms/kg/injection, schedule: Q01DX005 (ip), vehicle: saline + alcohol); 110 % of control (dose: 100.0 micrograms/kg/injection, schedule: Q01DX005 (ip), vehicle: saline + alcohol); 116 % of control (dose: 200.0 micrograms/kg/injection, schedule: Q01DX005 (ip), vehicle: saline + alcohol); 120 % of control (dose: 400.0 micrograms/kg/injection, schedule: Q01DX005 (ip), vehicle: saline + alcohol).
On to `c1ccc(CSc2ncnc3nc[nH]c23)cc1`, for which the T/C is 100 % of control (dose: 12.5 mg/kg/injection, schedule: Q01DX010 (ip), vehicle: saline); 100 % of control (dose: 25.0 mg/kg/injection, schedule: Q01DX010 (ip), vehicle: saline); 90 % of control (dose: 50.0 mg/kg/injection, schedule: Q01DX010 (ip), vehicle: saline); 90 % of control (dose: 100.0 mg/kg/injection, schedule: Q01DX010 (ip), vehicle: saline).
For `Cc1ccc(O)c(C(c2cc(C)ccc2O)c2cc(C)ccc2O)c1`, the T/C is 107 % of control (dose: 25.0 mg/kg/injection, schedule: Q01DX009 (ip), vehicle: saline with Tween-80); 105 % of control and 113 % of control (dose: 50.0 mg/kg/injection, schedule: Q01DX009 (ip), vehicle: saline with Tween-80); 101 % of control (dose: 100.0 mg/kg/injection, schedule: Q01DX009 (ip), vehicle: saline with Tween-80).
As to `CC(=O)c1cc[c]([Sn]([CH3])([Cl])[c]2ccccc2)cc1` (stereo unspecified), the T/C (dose: 7.5 mg/kg/injection, schedule: Q01DX005 (ip), vehicle: Klucel (hydroxypropylcellulose) (HPC)) is 100 % of control; the T/C (dose: 15.0 mg/kg/injection, schedule: Q01DX005 (ip), vehicle: Klucel (hydroxypropylcellulose) (HPC)) was 107 % of control; the T/C (dose: 60.0 mg/kg/injection, schedule: Q01DX005 (ip), vehicle: Klucel (hydroxypropylcellulose) (HPC)) is 108 % of control.
For `Nc1nc(C2CCCCC2)cc(=O)[nH]1`, the T/C was 87 % of control (dose: 50.0 mg/kg/injection, schedule: Q01DX005 (ip), vehicle: Klucel (hydroxypropylcellulose) (HPC)); 97 % of control (dose: 100.0 mg/kg/injection, schedule: Q01DX005 (ip), vehicle: Klucel (hydroxypropylcellulose) (HPC)); 97 % of control (dose: 200.0 mg/kg/injection, schedule: Q01DX005 (ip), vehicle: Klucel (hydroxypropylcellulose) (HPC)).
As for `O=C1OC(/C=C/c2ccccc2)=NC/1=C\c1ccccc1`, the T/C was 103 % of control (dose: 60.0 mg/kg/injection, schedule: Q01DX005 (ip), vehicle: Klucel + Tween-80); 99 % of control (dose: 120.0 mg/kg/injection, schedule: Q01DX005 (ip), vehicle: Klucel + Tween-80); 97 % of control (dose: 240.0 mg/kg/injection, schedule: Q01DX005 (ip), vehicle: Klucel + Tween-80).
For `Cc1cc(C(=O)NN)c(C#N)c(=O)[nH]1`, the T/C under setting [1] is 100 % of control; the T/C under setting [2] is 109 % of control; the T/C (dose: 400.0 mg/kg/injection, schedule: Q01DX009 (ip), vehicle: saline) was 90 % of control.
For the compound `CCN(CCO)CCNc1ccc(CO)c2sc3cc(Cl)ccc3c(=O)c12`, the T/C by setting is: (dose: 88.0 mg/kg/injection, schedule: Q01DX009 (ip), vehicle: saline with Tween-80) 105 % of control; (dose: 133.0 mg/kg/injection, schedule: Q01DX009 (ip), vehicle: saline with Tween-80) 113 % of control; (dose: 200.0 mg/kg/injection, schedule: Q01DX009 (ip), vehicle: saline with Tween-80) 112 % of control; (dose: 300.0 mg/kg/injection, schedule: Q01DX009 (ip), vehicle: saline with Tween-80) 102 % of control.
With `C[C@]12CC(=O)O[C@@H](C[C@H]1OC(=O)c1ccccc1)[C@@]21CO1`, the T/C is 102 % of control (dose: 1.0 mg/kg/injection, schedule: Q04DX002 (ip), vehicle: distilled water + Tween-80); 103 % of control (dose: 2.0 mg/kg/injection, schedule: Q04DX002 (ip), vehicle: distilled water + Tween-80); 100 % of control (dose: 4.0 mg/kg/injection, schedule: Q04DX002 (ip), vehicle: distilled water + Tween-80); 94 % of control (dose: 8.0 mg/kg/injection, schedule: Q04DX002 (ip), vehicle: distilled water + Tween-80); 100 % of control (dose: 16.0 mg/kg/injection, schedule: Q04DX002 (ip), vehicle: distilled water + Tween-80).
In the case of `O=[N+]([O-])c1nncs1`, the T/C is 105 % of control (dose: 6.25 mg/kg/injection, schedule: Q04DX003 (ip), vehicle: saline with Tween-80); 100 % of control (dose: 12.5 mg/kg/injection, schedule: Q04DX003 (ip), vehicle: saline with Tween-80); 110 % of control (dose: 25.0 mg/kg/injection, schedule: Q04DX003 (ip), vehicle: saline with Tween-80).
As for `Cc1cc(=O)n(Nc2ccccc2)c(O)c1C#N`, the T/C by setting is: (dose: 50.0 mg/kg/injection, schedule: Q01DX009 (ip), vehicle: Klucel (hydroxypropylcellulose) (HPC)) 100 % of control; (dose: 100.0 mg/kg/injection, schedule: Q01DX009 (ip), vehicle: Klucel (hydroxypropylcellulose) (HPC)) 94 % of control; (dose: 200.0 mg/kg/injection, schedule: Q01DX009 (ip), vehicle: Klucel (hydroxypropylcellulose) (HPC)) 100 % of control.

The record behind these values is PubChem BioAssay AID330 (DTP/NCI, 2004).
